Measurements from patent US6706727B1, “Macrolides” (Novartis AG, priority 2002, dated 2004).

Each molecule was assayed on CD4+ antigen-specific human helper T-cell clone (TCC) (assay: Antigen-specific stimulation of the helper T-cell clone (TCC) by monocyte-derived dendritic cells, T-cell proliferation (3H-thymidine)). Conditions: Dpt-pulsed M-DC, M-DC/T-cell ratio 1/50, 4 day culture.
Assay type: cell-based
Excerpt: This activity is further evidenced in additional testing with the above helper T-cell clone and monocyte-derived dendritic cells:
The CD4^+ antigen-specific human helper T-cell clone (TCC) is established by limiting dilution culture (Van Reijsen T. C. et al, J. Allergy Clin. Immunol. 90 [1992] 184-193). The TCC recognizes a peptide derived from the major allergen Der p1 of the house dust mite Dermatophagoides pteronyssinus (Dpt) in association with the MHC class II restriction molecule HLA-DPw4 (Baselmnns P. J. et al., Human Immunol. 61 [2000] 789-798). To obtain sufficient cell numbers for assay purposes, the TCC is expanded in vitro by activation with immobilized anti-CD3 monoclonal antibody (Leu4, Becton Dickinson, San Jose, Calif., USA) and culture in complete medium supplemented with rIL-2 and rhIL-4 (50 U/ml each) (Van Reijsen et al., supra).
Human monocyte-derived dendritic cells (M-DC) are generated from purified monocytes by culturing in RPMI 1640 culture medium at a cell density of 7×10^5 cells/ml. The culture medium is supplemented with 15% FCS and rh-GM-CSF (300 U/ml) and rh-IL-4 (100 U/ml). At day 7 of culture, 90-95% of the cells express the phenotype of M-DC as verified by flow cytometry and they are used for antigen-specific stimulation of the TCC, which is used at least 14 days after the last challenge by antigen or anti-CD3 mAb to ensure a resting state of the cells. For antigen-specific stimulation, the M-DC are incubated overnight (at least 12 h) in culture medium containing 50 μ/ml of the extract of Dpt (ARTU Biologicals NV, Lelystad, The Netherlands). The content of the major allergen Der p1 used is about 18.5 μg/mg of Dpt extract. The M-DC are washed twice and 50 μl aliquots of the final number of M-DC are added to 5×10^4 T-cells per well in 100 μl medium, giving a M-DC/T-cell ratio of 1/50. Immediately thereafter, 50 μl aliquots of a four-fold final concentration of test compound are added. Each sample is tested in quadruplicate. The test compound is dissolved in ethanol to provide a stock solution of 1 mM and diluted 1/1000 in the complete culture medium that is also used to prepare the final test compound dilution. T-cell proliferation is determined by pulsing with 1 μCi/20 μl/well of (methyl-)^3H-thymidine (Amersham, U.K) during the final 16 hours of a 4 day culture period.

First: CC[C@@H]1C[C@H](OC)[C@@H]2O[C@@]1(O)C(=O)C(=O)N1CCCC[C@H]1C(=O)O[C@H](/C(C)=C/[C@@H]1CC[C@@H](O)[C@H](OC)C1)[C@H](C)[C@@H](O)CC(=O)[C@H](CC)/C=C(\C)C[C@H](C)C[C@@H]2OC [27-ethyl-ascomycin]
Second: CC[C@@H]1C[C@H](OC)[C@@H]2O[C@@]1(O)C(=O)C(=O)N1CCCC[C@H]1C(=O)O[C@H](/C(C)=C/[C@@H]1CC[C@H](Cl)[C@H](OC)C1)[C@H](C)[C@@H](O)CC(=O)[C@H](CC)/C=C(\C)C[C@H](C)C[C@@H]2OC [Compound 27-ethyl-ASM]
The IC50 of the first is 5.2-fold lower: 0.88 nM for the first, 4.6 nM for the second.

First: CC/C1=C\[C@@H](CC)C(=O)C[C@H](O)[C@@H](C)[C@@H](/C(C)=C/[C@@H]2CC[C@H](Cl)[C@H](OC)C2)OC(=O)[C@@H]2CCCCN2C(=O)C(=O)[C@]2(O)O[C@H]([C@@H](OC)C[C@@H](C)C1)[C@@H](OC)C[C@H]2C [Compound 19-ethyl-ASM]
Second: CC[C@H]1C/C(C)=C/[C@@H](CC)C(=O)C[C@H](O)[C@@H](C)[C@@H](/C(C)=C/[C@@H]2CC[C@H](Cl)[C@H](OC)C2)OC(=O)[C@@H]2CCCCN2C(=O)C(=O)[C@]2(O)O[C@H]([C@@H](OC)C1)[C@@H](OC)C[C@H]2C [Compound 21-ethyl-ASM]
The IC50 of the first is 4.2-fold higher: 6.8 nM for the first, 1.6 nM for the second. The second is the more potent here.

For `CC[C@H]1C/C(C)=C/[C@@H](CC)C(=O)C[C@H](O)[C@@H](C)[C@@H](/C(C)=C/[C@@H]2CC[C@@H](O)[C@H](OC)C2)OC(=O)[C@@H]2CCCCN2C(=O)C(=O)[C@]2(O)O[C@H]([C@@H](OC)C1)[C@@H](OC)C[C@H]2C` [21-ethyl-ascomycin], the IC50 was 0.33 nM.
